{"source": "a melting point compilation (Tetko et al.; mined from patent text by program, amines drawn as free bases though some values may be those of a salt)"}
{"units": {"melting point": "°C"}}
{"compound": "CCc1cc2c(-c3ccccc3Cl)c(C(=O)O)c(=O)n(C)c2s1", "melting point": "155 to 156"}
{"compound": "O=C(NCc1ccccn1)c1cc(N2CCN(Cc3ccc(F)cc3)C2=O)n[nH]1", "melting point": "235 to 237"}
{"compound": "CC(O)C1CCC(CNC(=O)OC(C)(C)C)CC1", "note": "(stereo not given)", "melting point": "75 to 76"}
{"compound": "CC(=O)c1ccc2c(c1)C(Cc1ccccc1)=CC(=CCl)CO2", "melting point": "89 to 94"}
{"compound": "Cc1c(Cc2cccc3ccccc23)c(=O)oc2cc(O)cc(O)c12", "melting point": "275 to 280"}
{"compound": "CCOC(=O)c1cnc(Cl)c2c(C)n[nH]c12", "melting point": 180}
{"compound": "NS(=O)(=O)c1cc2cccc(O)c2s1", "melting point": "196 to 198"}
{"compound": "O=C(NC(=O)c1ccccc1Cl)Nc1cc(C(F)(F)F)c(F)cc1Br", "melting point": 192}
{"compound": "C=C(C)SC1C(NC(=O)COc2ccccc2)C(=O)N1C=O", "note": "(stereo not given)", "melting point": "156 to 158"}
{"compound": "CC(C)(C)OC(=O)C1=C(c2ccccc2)C(c2ccccc2)OC1=O", "note": "(stereo not given)", "melting point": "109 to 111"}
{"compound": "Cc1c(-c2ccc(Cl)cc2)nn(C)c1C(F)(F)F", "melting point": "87 to 88.5"}
{"compound": "COc1ccc(C(=O)c2c(N(C)C)sc3cc(OCc4ccccc4)ccc23)cc1OC", "melting point": "69 to 72"}
{"compound": "O=C(Nc1ccc(OCCCN2CCC3(CC2)OCCO3)c2ccccc12)c1cc(F)cc(N2CCCCC2)c1", "melting point": "70 to 72"}
{"compound": "CC(=O)NC(NC(=O)c1cc(C)cc(C)c1)C(N)=O", "note": "(stereo not given)", "melting point": "244 to 245"}
{"compound": "COc1ccc(-c2[nH]nc3c2C(=O)c2c(NC(=O)NNC(=O)c4ccccc4OC)cccc2-3)cc1", "melting point": 269}
{"compound": "CCOC(=O)c1c(-c2ccc(F)cc2)c2n(c1C(C)C)CCCC2", "melting point": "85.5 to 86.5"}
{"compound": "CCc1ccc(SCc2c(C(C)C)nc(C(C)C)c(CO)c2-c2ccc(F)cc2)cc1", "melting point": "102 to 103"}
{"compound": "NC(=NC(=O)c1nc(Cl)c(N)nc1N)NCCCCCCCCCCCC(=O)O", "melting point": "194 to 196"}
{"compound": "CC(C)(C)c1cc(C=C2SC(NC#N)=NC2=O)cc(C(C)(C)C)c1O", "melting point": "240 to 242"}
{"compound": "O=C1OC(c2ccccc2)=NC1Cc1c[nH]c2ccccc12", "note": "(stereo not given)", "melting point": "141 to 143"}
{"compound": "Cc1noc(NS(=O)(=O)c2ccc(F)cc2)c1Br", "melting point": "142 to 144"}
{"compound": "O=C(CCl)N1CC(c2ccc(F)cc2)Sc2ccccc21", "note": "(stereo not given)", "melting point": "122 to 124"}
{"compound": "Nc1ncnc2c1c(I)cn2COCCO", "melting point": "169 to 170"}
{"compound": "Cc1oc(-c2ccccc2)nc1CCOc1ccc(CN(O)C(N)=O)cc1", "melting point": "148 to 150"}
{"compound": "CC(C)(C)NC(=O)N1CCn2c(c(C(N)=O)c(Br)c2C2CC2)C1", "melting point": "204 to 208"}
{"compound": "CC(C=O)Cc1cc(C(C)(C)C)c(O)c(C(C)(C)C)c1", "note": "(stereo not given)", "melting point": "162 to 164"}
{"compound": "C=CCCc1nc(N)n2nc(-c3ccco3)nc2n1", "melting point": "194 to 196"}
{"compound": "O=C(O)CCc1cc(OCCCc2cn(-c3ccc(C(F)(F)F)cn3)nc2-c2ccccc2)nn1-c1ccccc1", "melting point": "175 to 176"}
{"compound": "CCOC(=O)c1c(C(F)(F)F)nc(C(F)(F)Cl)c(C(=O)OC)c1NC(C)(C)C", "melting point": "51.5 to 53"}
{"compound": "CC(C)(C(=O)O)c1ccc(C(O)CCCN2CCC(=C3c4ccccc4CCc4ccccc43)CC2)cc1", "note": "(stereo not given)", "melting point": "135 to 137"}
{"compound": "O=C(Nc1ccc(-c2ncno2)cc1)Oc1ccc([N+](=O)[O-])cc1", "melting point": "210 to 212"}
{"compound": "CC(C)CNCc1cc2cc(NC(=O)c3ccc(C#CC4(O)CC4)cc3)ccc2n1C", "melting point": "172 to 174"}
{"compound": "CCC(CC)(CCCS(N)(=O)=O)COc1nn2ccnc2cc1C", "melting point": "139 to 140"}
{"compound": "O=S(=O)(Cc1ccc(Cl)c(Cl)c1)Cc1ccc(Cl)c(Cl)c1", "melting point": 177}
{"compound": "C(#Cc1cc2ccccc2s1)c1ccc(-c2ccccc2)s1", "melting point": "185 to 186"}
{"compound": "Cc1nn(-c2ccc(Cl)cc2)c(C)c1C(=O)N[C@H](C)[C@](O)(Cn1cncn1)c1ccc(F)cc1F", "melting point": "144 to 145"}
{"compound": "CSCc1cc(C(F)(F)F)ccc1N", "melting point": "65.5 to 67.5"}
{"compound": "O=C(O)C1C(=O)Nc2ccccc2SC1c1ccc2c(c1)OCO2", "note": "(mixture of isomers)", "melting point": 110}
{"compound": "CCOC(=O)/C(=N\\OC1CCCCCC1)c1csc(N)n1", "melting point": "107 to 108"}
{"compound": "Cc1ccc(C(=O)Nc2ccccc2)cc1NC(=O)c1cc(Cl)cc(Cl)c1", "melting point": "202 to 205"}
{"compound": "O=C(c1cccc(F)c1)N1CCc2cc(S(=O)(=O)N3CC(c4ccccc4)NC3=O)ccc21", "note": "(stereo not given)", "melting point": 202}
{"compound": "OCC1=C(c2cccc3sccc23)N2CCN=C2S1", "melting point": "145 to 149"}
{"compound": "CCCCCCCCCCCCCCCCCCOCc1ccc(C(=O)O)cc1OCCCCCCCCCCCCCCCCCC", "melting point": "87 to 88"}
{"compound": "O=c1[nH]c2cccc(OCCNCc3ccc(Cl)cc3)c2[nH]c1=O", "melting point": "> 250"}
{"compound": "Nc1cc(C(=O)O)c(N)c2c1C(=O)c1ccccc1C2=O", "melting point": 352}
{"compound": "COc1cc(C=CC=O)ccc1OCc1nc(-c2ccco2)oc1C", "melting point": "125 to 126"}
{"compound": "CCOC(=O)c1ccc(NC(=O)/C=C/c2cnn(C)c2-c2ccc(F)cc2)cc1", "melting point": "202 to 203"}
{"compound": "c1ccc2c(SCc3ccncc3)ncnc2c1", "melting point": "117 to 118"}
{"compound": "CC(=O)Oc1ccc2c(c1)OC(c1ccccc1)(c1ccccc1)O2", "melting point": "81.5 to 82.5"}
{"compound": "CC(O)c1ccc(NS(C)(=O)=O)c(Sc2ccc(F)cc2F)c1", "note": "(stereo not given)", "melting point": "118 to 120"}
